# Measured values: ChEMBL document CHEMBL4152238, “Design, synthesis, structure-activity relationships and X-ray structural studies of novel 1-oxopyrimido[4,5-c]quinoline-2-acetic acid derivatives as selective and potent inhibitors of human aldose reductase” (Eur J Med Chem, 2018)
# The source made the active and inactive calls. No cut-off for these calls is given here.
# Tests used:
# [1] = Selectivity ratio of IC50 for N-terminal His10-tagged AKR1B10 (unknown origin) expressed in Escherichia coli BL21 to IC50 for […] AKR1B1 expressed in Escherichia coli BL21
# [2] = target: Aldo-keto reductase family 1 member B10 (Homo sapiens, UniProt O60218); test: Inhibition of N-terminal His10-tagged AKR1B10 (unknown origin) expressed in Escherichia coli BL21 using D,L-glyceraldehyde as substrate pretreated for 5 mins followed by substrate addition by spectrophotometric method
# Aldo-keto reductase family 1 member B10, sequence (O60218 whole entry): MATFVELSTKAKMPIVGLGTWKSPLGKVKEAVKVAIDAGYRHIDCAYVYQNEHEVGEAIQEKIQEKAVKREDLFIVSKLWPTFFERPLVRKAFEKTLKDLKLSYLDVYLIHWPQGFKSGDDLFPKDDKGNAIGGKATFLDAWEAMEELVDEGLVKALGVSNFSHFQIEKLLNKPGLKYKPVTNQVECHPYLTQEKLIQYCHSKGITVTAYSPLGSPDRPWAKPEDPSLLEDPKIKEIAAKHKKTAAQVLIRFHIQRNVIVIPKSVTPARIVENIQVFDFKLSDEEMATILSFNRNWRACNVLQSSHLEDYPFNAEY
# [3] = Inhibition of […] AKR1B1 expressed in Escherichia coli BL21 using D,L-glyceraldehyde as substrate pretreated for 5 mins followed by substrate addition by spectrophotometric method; settings: for Ki: read-out: Ki(app)
# HT-1080 = test: Cytotoxicity against human HT1080 cells after 72 hrs by MTT assay; type: functional, cell-based; settings: HT-1080, 72 h
# Cricetulus griseus = species: Cricetulus griseus; test: Inhibition of […] AKR1B1 expressed in Escherichia coli BL21 up to 10 uM using D,L-glyceraldehyde as substrate pretreated for 5 mins followed by substrate addition by spectrophotometric method
Ratio IC50 [1],IC50 [2] [µM],IC50 [3] [µM],inhibition (Cricetulus griseus),SMILES,Ki [3] [µM],IC50 (HT-1080) [µM]
37,7.86,0.21,,Cc1nc2c(-c3ccc(Cl)cc3)nc3ccccc3c2c(=O)n1CC(=O)O,0.13,> 100
7,13.8,1.92,,Cc1nc2c(-c3ccc(Br)cc3)nc3ccc(Cl)cc3c2c(=O)n1CC(=O)O,,> 100
3,2.99,1.01,,O=C(O)Cn1c(Cc2ccc(Cl)cc2)nc2c(-c3ccc(Cl)cc3)nc3ccccc3c2c1=O,,
,,,,COc1cccc2c1C(=O)c1c(O)c3c(c(O)c1C2=O)C[C@@](O)(C(=O)CO)C[C@@H]3O[C@H]1C[C@H](N)[C@H](O)[C@H](C)O1 [DOXORUBICIN],,0.0058
8,17.8,2.22,,Cc1nc2c(-c3ccc(Cl)cc3)nc3ccc(Br)cc3c2c(=O)n1CC(=O)O,,> 100
22,17,0.76,,COc1ccc(-c2nc3ccc(Cl)cc3c3c(=O)n(CC(=O)O)c(C)nc23)cc1,,78.1
9,3.89,0.41,,CCc1nc2c(-c3ccc(Cl)cc3)nc3ccc(F)cc3c2c(=O)n1CC(=O)O,0.5,
5,15,3.14,,COc1ccc2nc(-c3ccc(Cl)cc3)c3nc(C)n(CC(=O)O)c(=O)c3c2c1,,86.7
,,,inactive,Nn1c(-c2ccc(Br)cc2)nc2c(-c3ccc(Br)cc3)nc3ccc(Cl)cc3c2c1=O,,
9,5.87,0.66,,O=C(O)Cn1c(Cc2ccc(Cl)cc2)nc2c(-c3ccccc3)nc3ccccc3c2c1=O,,
50,10,0.2,,Cc1nc2c(-c3ccc(Br)cc3)nc3ccccc3c2c(=O)n1CC(=O)O,0.15,> 100
6,9.61,1.54,,Cc1nc2c(-c3ccc(Cl)cc3)nc3ccc(Cl)cc3c2c(=O)n1CC(=O)O,,30.2
14,6.39,0.43 to 0.46,,Cc1nc2c(-c3ccccc3)nc3ccccc3c2c(=O)n1CC(=O)O,0.44,
6,28.5,4.92,,Cc1ccc2nc(-c3ccc(Cl)cc3)c3nc(C)n(CC(=O)O)c(=O)c3c2c1,,> 100
17,9.61,0.57,,Cc1nc2c(-c3ccc(Br)cc3)nc3ccc(F)cc3c2c(=O)n1CC(=O)O,,> 100
23,8.18,0.35,,Cc1nc2c(-c3ccc(Cl)cc3)nc3ccc(F)cc3c2c(=O)n1CC(=O)O,0.24,> 100
39,4.71,0.12,,CCc1nc2c(-c3ccc(Cl)cc3)nc3ccccc3c2c(=O)n1CC(=O)O,0.073,
1,2.35,2.65,,O=C(O)Cn1c(Cc2ccccc2)nc2c(-c3ccc(Cl)cc3)nc3ccccc3c2c1=O,,
10,16.3,1.57,,Cc1nc2c(-c3ccc(Br)cc3)nc3ccc(Br)cc3c2c(=O)n1CC(=O)O,,> 100
18,3.33,0.19,,CCCc1nc2c(-c3ccc(Cl)cc3)nc3ccccc3c2c(=O)n1CC(=O)O,0.13,
38,10,0.26,,COc1ccc(-c2nc3ccc(F)cc3c3c(=O)n(CC(=O)O)c(C)nc23)cc1,0.24,> 100
,,,inactive,Nn1c(-c2ccc(Cl)cc2)nc2c(-c3ccc(Cl)cc3)nc3ccc(Cl)cc3c2c1=O,,
